Laboratory results: publication PMC7767221, “Conjugates Containing Two and Three Trithiolato-Bridged Dinuclear Ruthenium(II)-Arene Units as In Vitro Antiparasitic and Anticancer Agents” (Pharmaceuticals, 2020)
Read-outs that look alike come from different tables or passages of the source.

Assays:
A2780 cells [1] = assay: Growth inhibition, 72 h, cell density by Casy cell analyzer; type: cell-based, human; settings: 72 h exposure, mean ± SD
Description: (§1) Human ovarian carcinoma cells A2780 and the cisPt resistant variant A2780cisR were purchased from the European Center of Cell Cultures (ECACC, Salisbury, UK). The HEK-293 cell line was kindly provided by Prof. Mühlemann, University of Bern. The A24 cells and its subline (D-)A24cisPt8.0 were described previously. The cancer cells A24 and (D-)A24cisPt8.0 [105] (human lung adenocarcinoma cells wild type A24 and cisPt resistant (D-)A24cisPt8.0 subline), A2780 and A2780cisR (human ovarian cisplatin sensitive and resistant cancer cells), together with HEK293 (human embryonic kidney) cells as model for normal cells, were included in the study for the evaluation of the ruthenium compounds’ selectivity and cross-resistance with cisplatin. The A24 sublines, A2780 and A2780cisR were cultured in RPMI 1640 medium without riboflavin, phenol red and antibiotics, buffered with 4.5 mM HEPES (BioConcept, Allschwil, Switzerland), supplemented with 10% (v/v) fetal bovine serum (FBS) (Thermo Scientific, Weltham, MA, USA) as the only source of flavins, and with 13.5 mM NaHCO3. In order to retain cisplatin resistance in the A2780cisR cell line, 1 µM cisplatin was added to the medium every 2–3 passages. HEK293 cells were cultured in DMEM/F12 medium, supplemented with 10% (v/v) FBS. At subcultivation, cell monolayers were rinsed with PBS and exposed for 3 min to StemPro Accutase Cell Dissociation Reagent (Thermo Scientific, Weltham, MA, USA) at 36.5 °C. Detached cells were resuspended in culture medium. Cell densities were determined using Moxi flow cytometer according to manufacturer instructions (Orflo Technologies, Ketchum, ID, USA). Experiments and subcultivations were performed using light with wavelengths above 520 nm to prevent photochemical artifacts. Cytostatic drug response was quantified as previously reported. Briefly, HEK293, A24, A2780, A2780cisR, and (D-)A24cisPt8.0 single cell suspensions were freshly prepared from confluent cell layers using Accutase and diluted in culture medium to a cell density of 2 × 10^4 or 8 × 10^4 cells/mL (D-)A24cisPt8.0. 150 µl of this suspension was combined with 150 µl of twice the cisPt or Ru-compound concentration in a 96-well microtiter plate (TPP, Trasadingen, Switzerland). Test plates were incubated under standard conditions for 72 h. Cell densities were determined in a Casy I cell analyzer using Casystat software (OLS OMNI Life Science, Bremen, Germany). Drug concentrations leading to 50% growth inhibition compared to controls were calculated using GraphPad Software (La Jolla, CA, USA). Each experiment was done in triplicates.

(D-)A24cisPt8.0 cells [2] = assay: as above; type: cell-based, human; settings: 72 h exposure, mean ± SD
Description: as §1

HEK293 cells = assay: as above; type: cell-based, human; settings: 72 h exposure, mean ± SD
Description: as §1

A2780cisR cells [3] = assay: as above; type: cell-based, human; settings: 72 h exposure, mean ± SD
Description: as §1

A24 cells = assay: as above; type: cell-based, human; settings: 72 h exposure, mean ± SD
Description: as §1

[4] = system: T. gondii β-gal tachyzoites; assay: T. gondii β-gal tachyzoite proliferation in HFF (β-galactosidase / CPRG assay); type: cell-based, Toxoplasma gondii; settings: 72 h, % of DMSO control
Description: (§2) If not otherwise stated, all tissue culture media were purchased from Gibco-BRL, and biochemical agents purchased from Sigma-Aldrich. HFF (SCRC-1041.1) were purchased from ATCC, and were maintained in DMEM medium containing 10% fetal calf serum (FCS, Gibco-BRL, Waltham, MA, USA), and antibiotics as described. Transgenic T. gondii β-gal (expressing the β-galactosidase gene from Escherichia coli) were kindly provided by Prof. David Sibley (Washington University, St. Louis, MO, USA) and were maintained in HFF as host cells, and were isolated as described before.
Compounds were prepared as 1 mM stock solutions in DMSO (dimethyl sulfoxide, Sigma, St. Louis, MO, USA). For activity assays, HFF monolayers were cultured in 96 well plates by seeding 5 × 10^3 HFF per well and allowing them to grow to confluence in phenol-red free culture medium at 37 °C/5% CO2. For infection, T. gondii β-gal tachyzoites were separated from their host cells as described, parasites were isolated and HFF monolayers were infected with freshly isolated tachyzoites (1 × 10^3 per well), with compounds solutions added concomitantly during infection.
For the primary screening, T. gondii β-gal infected HFF were exposed to 0.1 and 1µM of each compound for a period of 72 h, or the corresponding concentration of DMSO (0.01% and 0.1%, respectively) as control. For the determination of IC50 values against T. gondii β-gal, compounds were added at 8 concentrations: 0.007, 0.01, 0.03, 0.06, 0.12, 0.25, 0.5, and 1 µM. After 72 h of culture at 37 °C/5% CO2, the medium was aspirated, and cells were permeabilized by adding 90 µL PBS (phosphate buffered saline) containing 0.05% Triton X-100. After addition of 10 µL 5 mM chlorophenol red-β-D-galactopyranoside (CPRG; Roche Diagnostics, Rotkreuz, Switzerland) dissolved in PBS, the absorption shift was measured at 570 nm wavelength at various time points using an EnSpire® multimode plate reader (PerkinElmer, Inc, Waltham, MA, USA). For the primary screening at 0.1 and 1 μM, the activity, measured as the release of chlorophenol red over time, was calculated as percentage from the respective DMSO control, which represented 100% of T. gondii β-gal growth. For the IC50 assays, the activity measured as the release of chlorophenol red over time was proportional to the number of live parasites down to 50 per well as determined in pilot assays. IC50 values were calculated after the logit-log-transformation of relative growth and subsequent regression analysis. All calculations were performed using the corresponding software tool contained in the Excel software package (Microsoft, Redmond, WA, USA).

[5] = system: HFF (human foreskin fibroblasts); assay: Cytotoxicity in uninfected confluent HFF host cells (AlamarBlue assay); type: cell-based; settings: 72 h, non-infected HFF
Description: as §2
Cytotoxicity assays using uninfected confluent HFF host cells were performed as previously described by AlamarBlue assay. In brief, confluent HFF monolayers in 96 well-plates were exposed to 0.1, 1 and 2.5 µM of each compound. Non-treated HFF as well as DMSO controls (0.01%, 0.1% and 0.25%) were included. After 72 h of incubation at 37 °C/5% CO2, the medium was removed, and plates were washed once with PBS. Resazurin stock solution was diluted 1:200 in PBS and 200 µL were added to each well. Plates were read at excitation wavelength 530 nm and emission wavelength […] at the EnSpire® multimode plate reader (PerkinElmer, Inc). Fluorescence was measured at different timepoints. Relative fluorescence units were calculated from timepoints with linear increase.

Neospora caninum [6] = system: Neospora caninum; set-up: method as in PMID 28652238, PMID 30620038, PMID 31469986; settings: applied orally, neosporosis mouse model; cited from earlier work
T. gondii = system: T. gondii; set-up: method as in PMID 28652238; settings: cited from earlier work; for parasiticidal action on T. gondii: applied at 250 nM; for IC50: read-out: T. gondii proliferation IC50
Neospora caninum [7] = system: Neospora caninum; set-up: method as in PMID 28652238, PMID 30620038, PMID 31469986; settings: read-out: N. caninum proliferation IC50; cited from earlier work
HFF host cells = settings: cited from earlier work
A2780 cells [8] = settings: read-out: IC50 against A2780 cells; cited from earlier work
A2780cisR cells [9] = system: A2780cisR cells; set-up: method as in PMID 27561129, doi:10.1016/j.jorganchem.2014.10.050, PMID 27187018; settings: read-out: IC50 against A2780cisR cells; cited from earlier work
(D-)A24cisPt8.0 cells [10] = system: (D-)A24cisPt8.0 cells; set-up: method as in PMID 32485798; settings: cited from earlier work
[11] = system: T. gondii β-gal tachyzoites; settings: 72 h, tachyzoites grown in HFF; previously reported; cited from earlier work

Compound	IC50 (A2780 cells [1])	IC50 ((D-)A24cisPt8.0 cells [2])	IC50 (HEK293 cells)	IC50 (A2780cisR cells [3])	IC50 (A24 cells)	parasite load in the central nervous system (Neospora caninum [6])	parasiticidal action on T. gondii (T. gondii)	IC50 (Neospora caninum [7])	further results
[(η6-p-MeC6H4Pri)2Ru2(μ2-SCH2C6H4-p-But)2(μ2-SC6H4-p-O)-(CO)(CH2)3(CO)-(p-O-C6H4-μ2S)Ru2(μ2-SCH2C6H4-p-But)2(η6-p-MeC6H4Pri)2]Cl2 [Compound 7]	0.097 ± 0.041 µM	0.053 ± 0.007 µM	0.085 ± 0.026 µM	0.072 ± 0.008 µM	0.033 ± 0.002 µM	–	–	–	T. gondii β-gal growth (%) 0.1 µM [4]: 68 ± 2%; T. gondii β-gal growth (%) 1 µM [4]: 0 ± 6%; HFF viability (%) 0.1 µM [5]: 76 ± 2%; HFF viability (%) 1 µM [5]: 25 ± 4%
[(η^6-p-MeC6H4Pr^i)2Ru2(µ2-SR^1)(µ2-SR^2)2]^+ with R^1 = CH2-C6H4-p-Bu^t, R^2 = C6H4-p-OH, X = Cl^- [D]	–	–	–	–	–	did not reduce parasite load in the central nervous system	did not act in a parasiticidal manner	1 nM	–
[(η^6-p-MeC6H4Pr^i)2Ru2(µ2-S-p-C6H4R)3]^+ with R = p-Bu^t	–	–	–	–	–	did not reduce parasite load in the central nervous system	did not act in a parasiticidal manner	5 nM	dosage that did not affect HFF host cells (HFF host cells): ≥ 200 µM; IC50 (A2780 cells [8]): 30 nM; IC50 (A2780cisR cells [9]): 30 nM; IC50 (T. gondii): 62 nM
[(η6-p-MeC6H4Pri)2Ru2(μ2-SCH2C6H4-p-But)2(μ2-SC6H4-p-NH)-(CO)-m-C6H4-(CO)-(p-NH-C6H4-μ2S)Ru2(μ2-SCH2C6H4-p-But)2(η6-p-MeC6H4Pri)2]Cl2 [Compound 17]	0.416 ± 0.106 µM	0.09 ± 0.003 µM	0.447 ± 0.043 µM	0.644 ± 0.08 µM	0.24 ± 0.016 µM	–	–	–	T. gondii β-gal growth (%) 0.1 µM [4]: 117 ± 7%; T. gondii β-gal growth (%) 1 µM [4]: 109 ± 6%; HFF viability (%) 0.1 µM [5]: 102 ± 2%; HFF viability (%) 1 µM [5]: 106 ± 7%
N.N.[Cl][Pt][Cl] [cisPt, cis-diamminedichloroplatinum(II)]	0.21 ± 0.119 µM	8.89 ± 0.446 µM	0.515 ± 0.064 µM	4.08 ± 0.21 µM	0.333 ± 0.075 µM	–	–	–	resistance to cisplatin of (D-)A24cisPt8.0 subline compared to the A24 cells ((D-)A24cisPt8.0 cells [10]): approximately 30 fold
CCc1nc(N)nc(N)c1-c1ccc(Cl)cc1 [Pyrimethamine, pyrimethamine]	–	–	–	–	–	–	–	–	IC50 [11]: 326 nM
[(η^6-p-MeC6H4Pr^i)2Ru2(µ2-S-p-C6H4R)3]^+ with R = p-Me [A]	–	–	–	–	–	did not reduce parasite load in the central nervous system	did not act in a parasiticidal manner	15 nM	dosage that did not affect HFF host cells (HFF host cells): ≥ 200 µM; IC50 (T. gondii): 34 nM
